Data reported in patent US20160199499A1, “USES OF PH[…] SYNTHETIC TLR7 AGONISTS” (priority 2013, published 2016).
Values joined by “and” are separate entries in the source; they are usually repeats but may differ in a detail not shown here. Equal values may be shown once.

Experiments:
[1] = tested on: influenza A/California/04/2009 (H1N1) virus; parameters: species or system BALB/c mice; settings: mouse, in vivo
[2] = tested on: cytokines and chemokines in BAL fluids and sera; assay: Luminex bead assay of cytokines and chemokines in BAL fluids and sera after pulmonary administration
[3] = Body weight monitoring / maximum tolerated dose after pulmonary administration
[4] = tested on: lung parenchyma; assay: Lung histology (H&E) after i.t. administration; settings: 1 nmol i.t., 6 and 24 h post treatment
[5] = tested on: CD11c+ dendritic cells; assay: In vivo CFSE labeling of dendritic cells, migration to mediastinal lymph nodes (flow cytometry); parameters: species or system C57BL/6 mice; settings: 1 nmol i.t., 24 h after drug administration
[6] = Particle size in PBS; format: physicochemical
[7] = tested on: West Nile Virus (WNV); assay: West Nile virus s.c. infection model; format: in vivo, C57BL/6 mice
[8] = tested on: B220+ B cells; assay: B cell numbers in lymph nodes after pulmonary administration (flow cytometry); settings: 1 nmol, 7 days post treatment
[9] = tested on: Vaccinia virus (IHD strain); parameters: species or system BALB/c mice; settings: mouse, in vivo
[10] = tested on: Venezuelan equine encephalitis virus (Trinidad Donkey, NR-332); parameters: species or system BALB/c mice; settings: mouse, in vivo, sc
[11] = tested on: neutrophils in BAL fluids; assay: BAL cell counts (Guava cytometer, Wright-Giemsa differential) after i.t. administration; format: in vivo, C57BL/6 mice
[12] = 1 nmol i.t., 6 h post-treatment, vs vehicle
[13] = 24 h after pulmonary (i.n.) administration, up to a 4 nmol dose

CCCCCCCC/C=C\CCCCCCCC(=O)OCC(COP(=O)(O)OCCNC(=O)c1ccc(Cn2c(=O)[nH]c3c(N)nc(OCCOC)nc32)cc1)OC(=O)CCCCCCC/C=C\CCCCCCCC (stereo not shown) [1V270, 2-(4-{[6-Amino-2-(2-methoxyethoxy)-8-oxo-7H-purin-9(8H)-yl]methyl}benzamido)ethyl 2,3-Bis(oleoyloxy)propyl Phosphate]
mice protected from lethal H1N1 pulmonary influenza infection [1]: 100%
IL-6 in BAL fluids [2, 12]: significantly increased
KC in BAL fluids [2, 12]: significantly increased
MCP-1 in BAL fluids [2, 12]: significantly increased
IP-10 induction in BAL fluids (surrogate marker of type 1 IFN) ([2]; 1 nmol i.t., monitored up to 72 h): peaked at 24 h and declined to baseline levels 72 h post treatment
IL-6 in sera [2, 13]: minimal insignificant increase
TNFα in sera [2, 13]: minimal insignificant increase
weight loss in TLR7 null mice ([3]; 75 nmol i.t., Tlr7-/- mice): did not lose weight
MTD relative to the effective dose ([3]; MTD 75 nmol/animal vs effective dose 1 nmol): 75 times
weight loss compared to vehicle treated mice ([3]; effective dose (1 nmoles), i.t.): did not cause significant weight loss
effective dose ([3]; pulmonary route, mice): 1 nmol
maximum tolerated dose (MTD) ([3]; pulmonary route, mice): 75 nmol/animal
inflammatory cell infiltration into the lung parenchyma [4]: did not show inflammatory cell infiltration into the lung parenchyma
CD11c+ DC migration to the mediastinal lymph nodes [5]: enhanced
particle size ([6]; dispersed in 50 μL PBS): 100-150 nm
particle size, average ([6]; in PBS, regardless of concentration): about 110 nm
survival compared to placebo-treated mice ([7]; 1 nmol/mouse i.n. at days -3 and -1, WNV s.c. day 0): not significant
survival compared to placebo-treated mice ([7]; 1 nmol/mouse i.n. on day -1, WNV s.c. day 0 (P≦0.05)): statistically improved
B cell number in the cervical, mesenteric and inguinal nodes [8]: did not significantly increase
B cell number in the draining mediastinal lymph nodes [8]: did not significantly increase
Mean Day of Death ± SD [9]: 7.2 ± 0.6 days and 8.4 ± 0.5 days and 9.0 days and 8.0 days and 7.3 ± 0.8 days
Survivors/Total [9]: 0/10 and 10/10*** and 5/10** and 9/10*** and 8/10*** and 3/10*
body weights during the infection [9]: increased over the first three days before declining
mice protected from death [9]: 90-100%
preserving body weight, rank among treatments [9]: best effect in preserving body weight
mice protected from encephalitis [10]: Eighty
cell infiltration and neutrophil recruitment to BAL fluids in MyD88 or TLR7 null mice ([11]; 1 nmol i.t., 24 h, Myd88-/- or Tlr7-/- mice): diminished
mononuclear cells in BAL fluids ([11]; 1 nmol i.t., 24 h after treatment, also elevated in vehicle-treated mice): slightly elevated
neutrophil population in BAL fluids ([11]; 1 nmol i.t., 24 h and 48 h after treatment): significant increase
total cell numbers in the BAL fluids ([11]; 1 nmol i.t., monitored for 72 h): increased over 48 h and declined to near baseline levels 72 h post pulmonary administration
neutrophil influx dose response ([11]; 24 h post treatment, i.t.): dose responsive between 0.1 to 10 nmol

Nc1ccn(C[C@@H](CO)OCP(=O)(O)O)c(=O)n1 [Cidofovir, reference compound]
Survivors/Total [9]: 10/10
effects on body weight [9]: superior to treatments with 1V270 that were started on the same day
mice protected from death [9]: 100%
